Test results as given in PMC4322967, “Afatinib circumvents multidrug resistance via dually inhibiting ATP binding cassette subfamily G member 2 in vitro and in vivo” (Oncotarget, 2014).

How the values were obtained:
Type in all cases: cell-based
ABCG2 [1] = target: T1, ABCG2 (Homo sapiens, UniProt Q9UNQ0); parameters: ABCG2-stably transfected HEK293 cells
T1 sequence (Q9UNQ0 1-655): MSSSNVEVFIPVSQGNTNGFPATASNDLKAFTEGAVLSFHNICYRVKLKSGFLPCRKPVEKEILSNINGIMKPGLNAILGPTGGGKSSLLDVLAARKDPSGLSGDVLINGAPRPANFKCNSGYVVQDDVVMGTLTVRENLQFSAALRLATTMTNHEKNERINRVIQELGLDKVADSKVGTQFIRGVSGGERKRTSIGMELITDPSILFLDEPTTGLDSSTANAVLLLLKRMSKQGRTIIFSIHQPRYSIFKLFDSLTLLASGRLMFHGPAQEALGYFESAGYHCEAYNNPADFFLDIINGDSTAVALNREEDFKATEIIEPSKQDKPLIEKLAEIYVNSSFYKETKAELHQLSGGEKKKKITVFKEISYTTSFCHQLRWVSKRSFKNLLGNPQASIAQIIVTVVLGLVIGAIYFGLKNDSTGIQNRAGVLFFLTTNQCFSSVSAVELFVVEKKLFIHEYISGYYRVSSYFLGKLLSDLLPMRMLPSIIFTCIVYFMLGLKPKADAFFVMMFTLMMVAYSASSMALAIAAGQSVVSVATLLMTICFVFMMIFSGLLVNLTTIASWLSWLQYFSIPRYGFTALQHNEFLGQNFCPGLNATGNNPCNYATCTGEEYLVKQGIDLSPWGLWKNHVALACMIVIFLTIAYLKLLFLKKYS

ABCG2 [2] = target: T1, ABCG2; assay: 5D3 conformational antibody shift at […], flow cytometry; parameters: ABCG2-stably transfected HEK293 cells
ABCG2 [3] = target: T1, ABCG2; assay: as above; parameters: ABCG2-stably transfected HEK293 cells; remark: listed apart in the source
ABCG2 [4] = target: T1, ABCG2; assay: vanadate-sensitive ATPase assay in crude membranes; also 5D3 shift and PhA efflux inhibition in HEK293/ABCG2 cells; parameters: crude membranes from ABCG2-expressing High Five insect cells
ABCG2 [5] = target: T1, ABCG2; assay: flow cytometry efflux of […] PhA in HEK293/ABCG2 versus pcDNA3 cells; parameters: HEK293 cells stably transfected with ABCG2

For `C#Cc1cccc(Nc2ncnc3cc(OCCOC)c(OCCOC)cc23)c1` [erlotinib], the “5D3 conformational antibody shift at 10 μM, flow cytometry” value (ABCG2 [1]) was “Other known ABCG2 inhibitors (including FTC, tariquidar and erlotinib) tested were also shown to notably increase 5D3 labeling”.

`COc1cc2c(cc1OC)CN(CCc1ccc(NC(=O)c3cc(OC)c(OC)cc3NC(=O)c3cnc4ccccc4c3)cc1)CC2` [tariquidar] was tested, and the “5D3 conformational antibody shift at 1 μM, flow cytometry” value (ABCG2 [2]) was “Other known ABCG2 inhibitors (including FTC, tariquidar and erlotinib) tested were also shown to notably increase 5D3 labeling”.

In the case of `COc1ccc2c3c([nH]c2c1)[C@H](C=C(C)C)N1C(=O)[C@@H]2CCCN2C(=O)[C@@H]1C3` [fumitremorgin C], the “5D3 conformational antibody shift at 5 μM, flow cytometry” value (ABCG2 [3]) is reported as “Other known ABCG2 inhibitors (including FTC, tariquidar and erlotinib) tested were also shown to notably increase 5D3 labeling”.

`CN(C)C/C=C/C(=O)Nc1cc2c(Nc3ccc(F)c(Cl)c3)ncnc2cc1O[C@H]1CCOC1` [Afatinib] was tested, and the “vanadate-sensitive ATPase assay in crude membranes; also 5D3 shift and PhA efflu” value (ABCG2 [4]) was “afatinib was found to inhibit the ATPase activity of ABCG2 in a dose dependent manner”.

In the case of `C=Cc1c(C)c2cc3nc(c4c5[nH]c(cc6nc(cc1[nH]2)C(C)=C6CC)c(C)c5C(=O)[C@@H]4C(=O)OC)[C@@H](CCC(=O)O)[C@@H]3C` [pheophorbide A], the “flow cytometry efflux of 1 μM PhA in HEK293/ABCG2 versus pcDNA3 cells” value (ABCG2 [5]) is reported as “fluorescent ABCG2 probe substrate (pheophorbide A, PhA) for efflux was studied in HEK293/ABCG2 cells by flow cytometry analysis”.
